IC50 data for 21 compounds are collected here from patent US8362236B2, “Macrocyclic compound” (Chugai Seiyaku Kabushiki Kaisha, priority 2007, dated 2013).

Each structure is given as a SMILES string. “And” between values parts separate entries of the source, which are not always exact repeats. Equal values may be shown once. Read-outs that look alike come from different tables or passages of the source. A value given as a limit tells only on which side of the number the result lay.

By IC50 is commonly meant the concentration at which inhibition is half-maximal.

Experiment [1] addresses T1, Human HSP90 alpha (Homo sapiens, UniProt P07900).
T1 construct: His tag (inferred from purification on a HisPrep FF column); made in house; host or cells: E. coli BL21 codon plus (Stratagene)
Put plainly: Assay for the activity of inhibiting HSP90 enzyme (ATPase, malachite green). Type of experiment: biochemical. As to conditions: purified human HSP90 alpha, 1 mM ATP added, 37° C. for two hours, OD655. As to the method:
Introduction of pETHuHSP90a into E. coli (BL21 codon plus; Stratagene) was followed by O/N incubation in the presence of 0.1 mM IPTG, and the collected E. coli cells were disrupted by ultrasonication in a Lysis buffer (50 mM Tris-HCl (pH8.0), 10 mM MgCl2, 0.1% Triton X-100, Protease inhibitor cocktail tablets (Roche Diagnostics)). The cell lysate solution was centrifuged (10,000 rpm×30 minutes), and the supernatant obtained after centrifugation was used as a crude extract. The crude extract was fractionated using HisPrep FF column and HiTrap Q column (Amersham) to prepare a purified enzyme solution.
An enzyme solution for assays was prepared by dilution of the purified enzyme solution using an assay buffer (50 mM Tris HCl pH7.6, 20 mM KCl, 5 mM MgCl2).
10 μL each of various concentrations of the test substances (10% DMSO solution) was added to each well, and for the positive control wells, 10 μL of 10% DMSO was added. 10 μL of 10% DMSO was also added to the negative control well.
10 μL of 1 mM ATP was added to all of the wells, and the reaction was carried out at 37° C. for two hours.

Experiment [2] has as its system HCT116 cells. Put plainly: Measurement of cell growth inhibition (Cell Counting Kit-8, four days).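 Note: cells exposed to a range of test concentrations at 37 °C in 5% CO2 for four days, then growth read as absorbance with Cell Counting Kit-8.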 As to conditions: Homo sapiens, HCT-116, 96 h, read-out: Cell growth-inhibiting activity (IC50, μM) Colon cancer HCT116, HCT116 colon cancer cell line, four days culture. In general terms: Tetrazolium assays rely on reduction of a dye to a coloured formazan, in cell work by metabolically active cells.
Description: Cells were maintained under conditions recommended by the provider of each cell line. Cells suspended in a medium were added to solutions containing various concentrations of the test substance, and the cells were cultured at 37° C. in a 5% CO2 incubator. Four days later, Cell Counting Kit-8 was added, and absorbance measurements were taken following the protocol included in the kit.

Where [3] appears, read: read-out: Enzyme-inhibiting activity (IC50, μM) Human HSP90α.

Consider `COc1cc(C)c2cc1C(=O)NCCCOc1cccc(c1)Sc1cc-2nc(N)n1` [Compound 16, 4-amino-20-methoxy-22-methyl-13-oxa-7-thia-3,5,17-triazatricyclo[17.3.1.1^2,6.1^8,12]pentacosa-1(22),2(24),3,5,8(25),9,11,19(23),20-nonaen-18-one], for which the half-inhibitory concentration (IC50) in experiment [1] (setting [3]) came to 1.6 µM.

For `Cc1cc(C)c2cc1C(=O)NCC[C@@H](CN1CCOCC1)NC(=O)CCSc1cc-2nc(N)n1` [Compound 71, (S)-4-amino-18,20-dimethyl-12-morpholin-4-ylmethyl-7-thia-3,5,11,15-tetraazatricyclo[15.3.1.1^2,6]docosa-1(20),2(22),3,5,17(21),18-hexaene-10,16-dione], the IC50 in experiment [1] (setting [3]) worked out at 2.9 µM; in experiment [2], 9.1 µM.

In the case of `Nc1nc2nc(n1)-c1cc(c(Cl)cc1Cl)OCCOCCOc1cccc(c1)S2` [Compound 27, 21,23-dichloro-13,16,19-trioxa-7-thia-3,5,25-triazatricyclo[18.3.1.1^2,6.1^8,12]hexacosa-1(23),2(25),3,5,8(25),9,11,20(24),21-nonaen-4-ylamine], the results for the half-maximal inhibitory concentration (IC50) in experiment [1] (setting [3]) and in experiment [2] were 2.1 µM and 1.4 µM, respectively.

Take `Nc1nc2cc(n1)-c1cc(c(Cl)cc1Cl)OCCCCCOc1cccc(c1)S2` [Compound 22, 4-amino-21,23-dichloro-13,19-dioxa-7-thia-3,5-diazatricyclo[18.3.1.1^2,6.1^8,12]hexacosa-1(24),2,4,6(24),8,10,12(26),20,22-nonaene]: the IC50 in experiment [1] (setting [3]) is 1.7 µM; in experiment [2], 2.4 µM.

Consider `COc1cc(C)c2cc1C(=O)NCCCC(=O)NCCSc1cc-2nc(N)n1` [Compound 9, 4-amino-18-methoxy-20-methyl-7-thia-3,5,10,15-tetraazatricyclo[15.3.1.1^2,6]docosa-1(20),2(22),3,5,17(21),18-hexaene-11,16-dione], for which the values for the 50% inhibitory concentration (IC50) in experiment [1] (setting [3]) and in experiment [2] were 1.9 µM and greater than 10 µM, respectively.

Turning to `Cc1cc(C)c2cc1C(=O)NCCOCCNC(=O)CCSc1cc-2nc(N)n1` [Compound 29, 4-amino-20,22-dimethyl-14-oxa-7-thia-3,5,11,17-tetraazatricyclo[17.3.1.1^2,6]tetracosa-1(22),2(24),3,5,19(23),20-hexaene-10,18-dione], the figures for the concentration for half-maximal inhibition (IC50) in experiment [1] (setting [3]) and in experiment [2] were 1.7 µM and 0.3 µM, respectively.

Take `Nc1nc2cc(n1)-c1cc(c(Cl)cc1Cl)OCCCCOc1cccc(c1)S2` [Compound 21, 4-amino-20,22-dichloro-13,18-dioxa-7-thia-3,5-diazatricyclo[17.3.1.1^2,6.1^8,12]pentacosa-1(23),2,4,6(24),8,10,12(25),19,21-nonaene]: the IC50 in experiment [1] (setting [3]) was 1.8 µM.

As to `CNC(=O)[C@@H]1CCNC(=O)CCSc2cc(nc(N)n2)-c2cc(c(C)cc2C)C(=O)N1` [Compound 65, (S)-4-amino-18,20-dimethyl-10,16-dioxo-7-thia-3,5,11,15-tetraazatricyclo[15.3.1.1^2,6]docosa-1(20),2(22),3,5,17(21),18-hexaene-14-carboxylic acid methylamide], the IC50 in experiment [1] (setting [3]) was determined as 2.8 µM; in experiment [2], 9 µM.

As for `Cc1cc(C)c2cc1C(=O)NCCCCCC(=O)NCCSc1cc-2nc(N)n1` [Compound 14, 4-amino-20,22-dimethyl-7-thia-3,5,10,17-tetraazatricyclo[17.3.1.1^2,6]tetracosa-1(22),2(24),3,5,19(23),20-hexaene-11,18-dione], the half-inhibitory concentration (IC50) in experiment [1] (setting [3]) stood at 0.8 µM; in experiment [2], 0.15 µM.

With `Cc1cc(C)c2cc1C(=O)NCCC(NC(=O)C(F)(F)F)C(=O)NCCSc1cc-2nc(N)n1` (stereo not shown) [Compound 75, N-(4-amino-18,20-dimethyl-11,16-dioxo-7-thia-3,5,10,15-tetraazatricyclo[15.3.1.1^2,6]docosa-1(20),2(22),3,5,17(21),18-hexaen-12-yl)-2,2,2-trifluoroacetamide], the half-inhibitory concentration (IC50) in experiment [1] (setting [3]) amounted to 1.9 µM; in experiment [2], 0.5 µM.

As to `COCCN1CCSc2cc(nc(N)n2)-c2cc(c(C)cc2C)C(=O)NCCCC1=O` [Compound 80, 4-amino-10-(2-methoxyethyl)-18,20-dimethyl-7-thia-3,5,10,15-tetraazatricyclo[15.3.1.1^2,6]docosa-1(20),2(22),3,5,17(21),18-hexaene-11,16-dione], the IC50 in experiment [1] (setting [3]) is 2.5 µM; in experiment [2] it was 0.2 µM.

For `COc1cc(C)c2cc1C(=O)N(C)CCCC(=O)NCCSc1cc-2nc(N)n1` [Compound 10, 4-amino-18-methoxy-15,20-dimethyl-7-thia-3,5,10,15-tetraazatricyclo[15.3.1.1^2,6]docosa-1(20),2(22),3,5,17(21),18-hexaene-11,16-dione], the half-maximal inhibitory concentration (IC50) was 1.1 µM in experiment [1] (setting [3]) and greater than 10 µM in experiment [2].

As for `Nc1nc2nc(n1)-c1cc(c(Cl)cc1Cl)OCCCCOc1cccc(c1)S2` [Compound 26, 20,22-dichloro-13,18-dioxa-7-thia-3,5,24-triazatricyclo[17.3.1.1^2,6.1^8,12]pentacosa-1(22),2(24),3,5,8(25),9,11,19(23),20-nonaen-4-ylamine], the 50% inhibitory concentration (IC50) in experiment [1] (setting [3]) came to 3.3 µM; in experiment [2], 7.4 µM.

On to `Cc1cc(C)c2cc1C(=O)NCCCC(=O)N(C)CCSc1cc-2nc(N)n1` [Compound 82, 4-amino-10,18,20-trimethyl-7-thia-3,5,10,15-tetraazatricyclo[15.3.1.1^2,6]docosa-1(20),2(22),3,5,17(21),18-hexaene-11,16-dione], for which the values for the concentration for half-maximal inhibition (IC50) in experiment [1] (setting [3]) and in experiment [2] were 2.5 µM and 0.2 µM, respectively.

Regarding `Cc1cc(C)c2cc1C(=O)NCCC(NC(=O)[C@H](N)Cc1ccc(O)cc1)C(=O)NCCSc1cc-2nc(N)n1` (stereo partly shown) [Compound 77], the concentration for half-maximal inhibition (IC50) was 5 µM and 3.4 µM in experiment [1] (Enzyme-inhibiting activity (IC50, μM) Human HSP90α); 6.5 µM in experiment [2].

For the compound `Cc1cc(C)c2cc1C(=O)NC[C@@H](O)CNC(=O)CCSc1cc-2nc(N)n1` [Compound 31, (S)-4-amino-13-hydroxy-18,20-dimethyl-7-thia-3,5,11,15-tetraazatricyclo[15.3.1.1^2,6]docosa-1(20),2(22),3,5,17(21),18-hexaene-10,16-dione], the IC50 in experiment [1] (setting [3]) was determined as 0.8 µM; in experiment [2] it was 1.3 µM.

On to `CCOc1cc(C)c2cc1C(=O)NCCCOc1cccc(c1)Sc1cc-2nc(N)n1` [Compound 17, 4-amino-20-ethoxy-22-methyl-13-oxa-7-thia-3,5,17-triazatricyclo[17.3.1.1^2,6.1^8,12]pentacosa-1(22),2(24),3,5,8(25),9,11,19(23),20-nonaen-18-one], for which the IC50 in experiment [1] (setting [3]) was determined as 1.3 µM.

As for `Nc1nc2cc(n1)-c1cc(c(Cl)cc1Cl)OCCOCCOc1cccc(c1)S2` [Compound 23, 21,23-dichloro-13,16,19-trioxa-7-thia-3,5-diazatricyclo[18.3.1.1^2,6.1^8,12]hexacosa-1(23),2(25),3,5,8(26),9,11,20(24),21-nonaen-4-ylamine], the IC50 in experiment [1] (setting [3]) is 1.1 µM; in experiment [2], 1.4 µM.

In the case of `Cc1cc(C)c2cc1C(=O)NCCC(NC(=O)[C@H](N)C(C)C)C(=O)NCCSc1cc-2nc(N)n1` (stereo partly shown) [Compound 76], the 50% inhibitory concentration (IC50) is 4.3 µM and 6.2 µM in experiment [1] (setting [3]); 5 µM in experiment [2].

In the case of `Cc1cc(C)c2cc1C(=O)NCCNC(=O)CCCSc1cc-2nc(N)n1` [Compound 4, 4-amino-18,20-dimethyl-7-thia-3,5,12,15-tetraazatricyclo[15.3.1.1^2,6]docosa-1(20),2(22),3,5,17(21),18-hexaene-11,16-dione], the IC50 in experiment [1] (setting [3]) came to 1 µM.

In the case of `Cc1cc(C)c2cc1C(=O)NCCCC(=O)NCCSc1cc-2nc(N)n1` [Compound 11, 4-amino-18,20-dimethyl-7-thia-3,5,10,15-tetraazatricyclo[15.3.1.1^2,6]docosa-1(20),2(22),3,5,17(21),18-hexaene-11,16-dione], the IC50 in experiment [1] (setting [3]) stood at 1.2 µM.
